Experimental data as given in patent publication US12291515B2, “Pyrrolidine derivative and use thereof” (Rushi Biotech (Hangzhou) Co., Ltd, priority 2021, dated 2025).
pIC50: −log10 of the molar value.

Columns and labels:
Assay type in all cases: cell-based
[1] = tested on: Human lung adenocarcinoma cell A549; test: CCK-8 cell proliferation assay, A549; details: A549 cells, CCK-8, 24 hrs with drug, OD 450 nm
Procedure: (§1) The effect of samples on the proliferation of human tumor cells in vitro was determined by CCK-8 cell proliferation assay.
(§2) The cells were assayed through a method including the following steps:
(§3) 1) The cells were digested, counted, and prepared into a cell suspension in a corresponding culture medium (Table 1) (5×10^4 cells/ml for CFPAC-1 and RPMI 8226, and 3.5×10^4 cells/ml for rest cells). The cell suspension was added to each well of a 96-well plate in 100 μl well.
(§4) 2) Then the 96-well plate was incubated for 24 hrs in an incubator at 37° C. and 5% CO2.
(§5) 3) The drug was diluted with the culture medium to the required working concentration. 100 μl of the corresponding drug containing medium was added to each well. A negative control group (added with drug-free culture medium) was also set.
(§6) 4) Then the 96-well plate was incubated for 24 hrs in an incubator at 37° C. and 5% CO2.
(§7) 5) The 96-well plate was stained with CCK-8, and The OD value was determined at λ=450 nm.
(§8) a) 10 μl of CCK-8 was added to each well, and incubated in the incubator for another 2-3 hrs.
(§9) b) The content was mixed uniformly by shaking gently on a shaker for 10 min, and the bubbles in the 96-well plate were removed.
(§10) 6) The inhibition rate in each group was calculated.

[2] = tested on: Human hepatoma cell HepG2; test: CCK-8 cell proliferation assay, HepG2; details: HepG2 cells, CCK-8, 24 hrs with drug, OD 450 nm
Procedure: as §1, §2, §3, §4, §5, §6, §7, §8, §9, §10

[3] = tested on: Human esophageal cancer cell TE-1; test: CCK-8 cell proliferation assay, TE-1; details: TE-1 cells, CCK-8, 24 hrs with drug, OD 450 nm
Procedure: as §1, §2, §3, §4, §5, §6, §7, §8, §9, §10

[4] = tested on: Human gastric cancer cell MKN45; test: CCK-8 cell proliferation assay, MKN-45; details: MKN-45 cells, CCK-8, 24 hrs with drug, OD 450 nm
Procedure: as §1, §2, §3, §4, §5, §6, §7, §8, §9, §10

[5] = tested on: Human colon cancer cell HCT-116; test: CCK-8 cell proliferation assay, HCT116; details: HCT116 cells, CCK-8, 24 hrs with drug, OD 450 nm
Procedure: as §1, §2, §3, §4, §5, §6, §7, §8, §9, §10

[6] = tested on: Human multiple myeloma cell RPMI 8226; test: CCK-8 cell proliferation assay, RPMI8226; details: RPMI8226 cells, CCK-8, 24 hrs with drug, OD 450 nm
Procedure: as §1, §2, §3, §4, §5, §6, §7, §8, §9, §10

[7] = tested on: Human pancreatic cancer cell CFPAC-1; test: CCK-8 cell proliferation assay, CFPAC-1; details: CFPAC-1 cells, CCK-8, 24 hrs with drug, OD 450 nm
Procedure: as §1, §2, §3, §4, §5, §6, §7, §8, §9, §10

SMILES	pIC50 [1]	pIC50 [2]	pIC50 [3]	pIC50 [4]	pIC50 [5]	pIC50 [6]	pIC50 [7]
O=C(NCCCCCC1CCN(C(=O)c2ccccc2)C1)Nc1ccncc1 (stereo not drawn) [BSS-TP007, 1-(5-(1-(benzoyl)pyrrolidin-3-yl)pentyl)-2-(4-pyridinyl)urea]	7.51	7.16	7.12	7.24	7.48	7.77	7.55
O=C(NCCCCCC1CCN(C(=O)c2cccs2)C1)Nc1ccncc1 (stereo not drawn) [BSS-TP008, 1-(5-(1-(2-thienylformyl)pyrrolidin-3-yl)pentyl)-2-(4-pyridinyl)urea]	7.26	7.29	7.24	7.37	7.11	7.48	7.66
COc1cccc(OC)c1C(=O)N1CCC(CCCCCNC(=O)Nc2ccncc2)C1 (stereo not drawn) [BSS-TP009, 1-(5-(1-(2,6-dimethoxybenzoyl)pyrrolidin-3-yl)pentyl)-2-(4-pyridinyl) urea]	7.54	7.34	7.31	7.20	7.68	7.59	7.41
O=C(NCCCCCC1CCN(C(=O)c2ccc[nH]2)C1)Nc1ccncc1 (stereo not drawn) [BSS-TP010, 1-(5-(1-(2-pyrrolylformyl)pyrrolidin-3-yl)pentyl)-2-(4-pyridinyl)urea]	7.44	7.39	7.38	7.47	7.60	7.70	7.42
O=C(NCCCCCC1CCN(C(=O)c2ccco2)C1)Nc1ccncc1 (stereo not drawn) [BSS-TP011, 1-(5-(1-(furoyl)pyrrolidin-3-yl)pentyl)-2-(4-pyridinyl)urea]	7.48	7.11	7.09	7.44	7.15	7.49	7.54
O=C(NCCCCCC1CCN(C(=O)C2CCCO2)C1)Nc1ccncc1 (stereo not drawn) [BSS-TP012, 1-(5-(1-(2-tetrahydrofurylformyl)pyrrolidin-3-yl)pentyl)-2-(4-pyridinyl)urea]	7.17	6.91	6.86	7.23	7.29	7.52	7.42
O=C(NCCCCCC1CCN(C(=O)C2CCCS2)C1)Nc1ccncc1 (stereo not drawn) [BSS-TP013, 1-(5-(1-(2-tetrahydrothienylformyl)pyrrolidin-3-yl)pentyl)-2-(4-pyridinyl)urea]	7.09	6.88	7.01	7.14	7.17	7.35	7.39
O=C(NCCCCCC1CCN(C(=O)C2CCCN2)C1)Nc1ccncc1 (stereo not drawn) [BSS-TP014, 1-(5-(1-(2-pyrrolidinylformyl)pyrrolidin-3-yl)pentyl)-2-(4-pyridinyl)urea]	6.93	7.05	7.09	7.04	7.21	7.30	7.29
O=C(NCCCCCC1CCN(C(=O)c2ccccc2)C1)Nc1ccnc(F)c1 (stereo not drawn) [BSS-TP015]	7.51	7.41	7.24	7.48	7.37	7.66	7.55
COc1cccc(OC)c1C(=O)N1CCC(CCCCCNC(=O)Nc2ccnc(F)c2)C1 (stereo not drawn) [BSS-TP016]	7.52	7.23	7.26	7.34	7.39	7.52	7.49
O=C(NCCCCCC1CCN(C(=O)c2ccc[nH]2)C1)Nc1ccnc(F)c1 (stereo not drawn) [BSS-TP017]	7.39	7.11	7.16	7.26	7.24	7.38	7.39
O=C(NCCCCCC1CCN(C(=O)c2ccco2)C1)Nc1ccnc(F)c1 (stereo not drawn) [BSS-TP018]	7.42	7.21	7.06	7.41	7.29	7.42	7.48
O=C(NCCCCCC1CCN(C(=O)c2cccs2)C1)Nc1ccnc(F)c1 (stereo not drawn) [BSS-TP019]	7.14	7.07	6.88	7.15	7.41	7.36	7.31
O=C(NCCCCCC1CCN(C(=O)C2CCCN2)C1)Nc1ccnc(F)c1 (stereo not drawn) [BSS-TP020]	7.03	7.31	7.04	7.28	7.33	7.48	7.47
O=C(NCCCCCC1CCN(C(=O)c2ccccc2)C1)Nc1cc(F)nc(F)c1 (stereo not drawn) [BSS-TP021]	7.48	7.38	7.19	7.19	7.11	7.38	7.51
O=C(NCCCCCC1CCN(C(=O)c2ccccc2)C1)Nc1cccnc1 (stereo not drawn) [BSS-TP023, 1-(5-(1-(benzoyl)pyrrolidin-3-yl)pentyl)-2-(3-pyridinyl)urea]	7.28	7.14	6.99	7.12	7.16	7.38	7.34
O=C(NCCCCCC1CCN(C(=O)c2cccs2)C1)Nc1cccnc1 (stereo not drawn) [BSS-TP024, 1-(5-(1-(2-thienylformyl)pyrrolidin-3-yl)pentyl)-2-(3-pyridinyl)urea]	7.23	7.13	6.95	7.09	7.14	7.31	7.41
O=C(NCCCCCC1CCN(C(=O)c2cc3ccccc3[nH]2)C1)Nc1ccncc1 (stereo not drawn) [BSS-TP025, 1-(5-(1-(2-indolylformyl)pyrrolidin-3-yl)pentyl)-2-(4-pyridinyl)urea]	7.21	7.11	7.19	7.28	7.27	7.40	7.43
O=C(NCCCCCC1CCN(C(=O)c2cc3ccccc3o2)C1)Nc1ccncc1 (stereo not drawn) [BSS-TP026, 1-(5-(1-(2-benzofurylformyl)pyrrolidin-3-yl)pentyl)-2-(4-pyridinyl)urea]	7.16	7.08	7.14	7.15	7.04	7.29	7.38
O=C(NCCCCCC1CCN(C(=O)C2Cc3ccccc3O2)C1)Nc1ccncc1 (stereo not drawn) [BSS-TP027, 1-(5-(1-(2-benzotetrahydrofurylformyl)pyrrolidin-3-yl)pentyl)-2-(4-pyridinyl)urea]	7.06	6.99	7.03	7.19	7.04	7.26	7.23
O=C(NCCCCCC1CCN(C(=O)c2ccco2)C1)Nc1cccnc1 (stereo not drawn) [BSS-TP028, 1-(5-(1-(furoyl)pyrrolidin-3-yl)pentyl)-2-(3-pyridinyl)urea]	7.39	7.23	7.24	7.36	7.20	7.38	7.51
O=C(NCCCCCC1CCN(C(=O)c2occc2F)C1)Nc1ccncc1 (stereo not drawn) [BSS-TP030]	7.38	7.20	7.22	7.24	7.21	7.34	7.40
O=C(NCCCCCC1CCN(C(=O)c2[nH]ccc2F)C1)Nc1ccncc1 (stereo not drawn) [BSS-TP031]	7.23	7.29	7.17	7.35	7.28	7.41	7.48
COc1cccc(OC)c1C(=O)N1CCC(CCCCCNC(=O)Nc2cc(F)nc(F)c2)C1 (stereo not drawn) [BSS-TP032]	7.14	7.00	6.93	7.13	7.16	7.24	7.41
COc1cccc(OC)c1C(=O)N1CCC(CCCCCNC(=O)Nc2cccnc2)C1 (stereo not drawn) [BSS-TP033, 1-(5-(1-(2,6-dimethoxybenzoyl)pyrrolidin-3-yl)pentyl)-2-(3-pyridinyl) urea]	7.19	7.09	7.06	7.19	7.14	7.28	7.25
O=C(NCCCCCC1CCN(C(=O)c2ccco2)C1)Nc1cc(F)nc(F)c1 (stereo not drawn) [BSS-TP035]	7.41	7.09	7.14	7.33	7.18	7.54	7.46
O=C(NCCCCCC1CCN(C(=O)c2cc3ccccc3o2)C1)Nc1cc(F)nc(F)c1 (stereo not drawn) [BSS-TP036]	7.24	6.90	7.03	7.28	7.11	7.31	7.38
